# According to article PMC4929710, “Specificity and mechanism of action of alpha-helical membrane-active peptides interacting with model and biological membranes by single-molecule force spectroscopy” (Scientific Reports, 2016):
# pIC50: −log10 of the molar value. Read-outs that look alike come from different tables or passages of the source.
# What was measured:
# [1] = tested on: B16 cells; format: cell-based, mouse; conditions: 24 h
# Protocol: (§1) The MTT cell proliferation assay was used to investigate the anticancer activity and cytotoxicity of MAPs against cancer cell lines (HeLa, A549, SGC-7901, and B16) and normal cells (3T3-L1), respectively. Cells (5 × 10^3) were seeded in 96-well plates and incubated overnight. The peptide samples were then added to cells with final concentrations ranging from 1 μM to 125 μM. After 24 h, 20 μL of 5 mg/mL MTT solution in PBS was added to the cells and treated for 4 h at 37 °C. The formazan crystals were dissolved by 150 μL of dimethyl sulfoxide (DMSO). Finally, the absorbance was determined at 492 nm. The results were expressed as IC50, representing the concentration at which cell viability was reduced by 50%. All assays were repeated in triplicate.
# [2] = tested on: 3T3-L1 cells; format: cell-based, mouse; conditions: 24 h
# Protocol: as §1
# [3] = tested on: PC/Chol (8:1 w/w) LUVs; experiment: Single-molecule force spectroscopy (AFM); format: binding; conditions: RMS ± SD; N-terminal Cys peptide on AFM tip via PEG linker; normal eukaryotic model membrane
# Excerpt: (§2) Based on the above results, five selected peptides of V13L, A12L/A20L, V13K, V13E, and L6A/L17A, with different hydrophobicity and charges were used to examine the interaction probabilities and forces between peptides and membranes, both on the lipid model membranes and on the biological membranes by SMFS based on AFM, respectively. A cysteine residue was covalently introduced to the N-terminus of peptides and provided a free sulfhydryl group to modify the tips of the AFM. A PEG linker was used since each heterobifunctional PEG–NHS linker (approximately 20 nm) can only covalently connect with a single peptide molecule, which guarantees a single-molecule interaction between MAPs and biological membranes in real time[19]. If an AFM tip was functionalized with two or more peptides, where several peaks were recorded. In the reports, data with two peaks were not collected and calculated. For one force–distance cycle, one peptide-functionalized AFM tip approached the model and biological membranes right on the top, and the subsequent tip was withdrawn from the cell membranes to retrace the process. […] In addition, blocking experiment was used to test the specificity of these force events. As the electrostatic attraction is one important reason for peptides approaching model membranes and biological membranes, the Tris-HCl buffer including plenty amino groups[20] was injected into the working chamber and inhibits the interactions between MAPs and model membranes/biological membranes. […] The unbinding forces of V13L against different model membranes and biological membranes with the loading rate of 1 × 10^5 pN s^−1 are shown in Fig. 3c,f–h,j–l.
# Lipids using the freeze-thaw method as described previously, followed by extrusion through […] double-stacked nuclepore filters using an Mini-Extruder (Avanti Polar Lipids, Inc.)[11][27].
# The AFM tip was first washed with concentrated sulfuric acid and hydrogen peroxide (3:1, v:v). The tip was dried using ozone (O3) for 15 min and dried overnight in a dryer. The tip was then modified with APTES under an argon atmosphere and the peptide connected with a PEG–NHS linker. Finally, the AFM tip linked with the peptide was washed three times in PBS and kept at 4 °C. A 500-μL LUV suspension was deposited on Lys coated glass and the LUVs were absorbed on the surface for 1 h at 65 °C [9][29]. A. laidlawii was deposited on poly-L-lysine coated glass and absorbed for 1 h at 37 °C [30]. The 3T3-L1 and HeLa cells were cultured on glass slides in Dulbecco’s modified Eagle’s medium (DMEM). Before performing force spectroscopy experiments, the cells were washed with fresh DMEM three times to remove the cell metabolites. Isolation of chicken erythrocytes was carried out at room temperature. […]
# [4] = RP-HPLC retention time (peptide hydrophobicity); format: physicochemical; conditions: used as measure of peptide hydrophobicity
# Protocol: All peptides were synthesized by solid-phase peptide synthesis using Fmoc (9-fluorenyl-methoxycar-bonyl) chemistry and rink amide 4-methylbenzhydrylamine resin (MBHA resin; 0.8 mmol/g), as described previously. The crude peptides were purified on a LC-6A preparative reversed-phase high performance liquid chromatography (RP-HPLC, Shimadzu, Kyoto, Japan) using a Zorbax 300 SB-C8 column (250 × 9.4 mm inner diameter, […] particle size, 300 Å pore size), as described previously. The purity of the peptides was characterized by analytical RP-HPLC, mass spectrometry, and amino acid analysis.
# [5] = Circular dichroism (CD) analysis; format: physicochemical; conditions: for α-Helix (%) 50% TFE / α-Helix (%) Benign: relative to molar ellipticity of A12L/A20L in 50% TFE; for [θ]222 Benign / [θ]222 50% TFE: CD, 25 °C; for [θ]222 Benign: benign buffer pH 7.0, 100 mM KCl, 50 mM KH2PO4/K2HPO4; for [θ]222 50% TFE: benign buffer:TFE 1:1 vol/vol; for α-Helix (%) Benign: benign buffer
# Protocol: The secondary structures of the peptides were determined using a Jasco J-810 CD spectrometer (Jasco, Easton, MD) at 25 °C [12]. The benign buffer (pH 7.0, 100 mM KCl, 50 mM KH2PO4/K2HPO4) was used to simulate the hydrophilic environment and 50% 2,2,2-trifluoroethanol (TFE) (benign buffer: TFE = 1: 1, vol/vol) was used to simulate the hydrophobic environment. The mean residue molar ellipticities at 222 nm, [θ]222 (degree·cm^2·dmol^−1), were used to calculate the relative helical contents of MAPs[24].
# CD spectroscopy illustrated the secondary structure of peptide analogs under benign environment and 50% TFE to mimic the hydrophobic conditions of cell membranes. CD results are shown in Supplementary Table S2 and Fig. S1. […] The helical content (%) of peptides in two groups relative to the molar ellipticity value of the peptide A12L/A20L in 50% TFE. In addition, except the peptide of V13E, the relative helicity of the peptides are in the same order of V13L>V13A>V13S>V13K and A12L/A20L>A20L>L6A>L6A/L17A in the benign and hydrophobic environments and also in the same order with the peptide hydrophobicity.
# [6] = tested on: chicken erythrocyte membranes; experiment: Single-molecule force spectroscopy (AFM); format: binding; conditions: for Unbinding force Chicken erythrocyte: RMS ± SD, N-terminal Cys peptide on AFM tip via PEG linker
# Excerpt: as §2
# The AFM tip was first washed with concentrated sulfuric acid and hydrogen peroxide (3:1, v:v). The tip was dried using ozone (O3) for 15 min and dried overnight in a dryer. The tip was then modified with APTES under an argon atmosphere and the peptide connected with a PEG–NHS linker. Finally, the AFM tip linked with the peptide was washed three times in PBS and kept at 4 °C. A 500-μL LUV suspension was deposited on Lys coated glass and the LUVs were absorbed on the surface for 1 h at 65 °C [9][29]. A. laidlawii was deposited on poly-L-lysine coated glass and absorbed for 1 h at 37 °C [30]. The 3T3-L1 and HeLa cells were cultured on glass slides in Dulbecco’s modified Eagle’s medium (DMEM). Before performing force spectroscopy experiments, the cells were washed with fresh DMEM three times to remove the cell metabolites. Isolation of chicken erythrocytes was carried out at room temperature. Then the erythrocytes were washed three times in 2 mL PBS buffer by centrifuge (1,000 rpm) and resuspended in PBS buffer. 200 μL erythrocyte suspension were deposited onto poly-L-lysine coated glass for 20 min[10]. The force measurements of MAPs with LUVs mimicking membranes and living cells were performed using the AFM5500 (Agilent Technologies, Chandler, AZ, USA)[19].
# [7] = MTT, 1-125 μM, triplicate, read-out: IC50 B16
# [8] = normal cells, MTT, 1-125 μM, triplicate, read-out: IC50 3T3-L1
compound,measurement,setting,value
Ac-KWKSFLKTFKSAEKTVLHTALKAISS-NH2 [Peptide V13E],pIC50,[1],3.92
same,pIC50,[2],< 3.90
same,Unbinding force PC/Chol,[3],89 ± 34 pN
same,tR (RP-HPLC retention time),[4],44.290 min
same,α-Helix (%) 50% TFE,[5],43.13%
same,[θ]222 Benign,[5],−3876.86 degree·cm^2·dmol^−1
same,[θ]222 50% TFE,[5],−18689.59 degree·cm^2·dmol^−1
same,α-Helix (%) Benign,[5],8.95%
same,Unbinding force Chicken erythrocyte,[6],59 ± 35 pN
Ac-KWKSFLKTFKSALKTVLHTALKAISS-NH2 [Peptide V13L],pIC50,[1],5.45
same,pIC50,[2],5.18
same,Unbinding force PC/Chol,[3],98 ± 30 pN
same,tR (RP-HPLC retention time),[4],53.177 min
same,α-Helix (%) 50% TFE,[5],90.73%
same,[θ]222 Benign,[5],−10502.62 degree·cm^2·dmol^−1
same,[θ]222 50% TFE,[5],−39315.30 degree·cm^2·dmol^−1
same,α-Helix (%) Benign,[5],24.24%
same,Unbinding force Chicken erythrocyte,[6],76 ± 34 pN
same,Interaction probability of the force signal,"[6]; chicken erythrocyte membranes, out of about 1000 force cycles",about 18%
CC[C@H](C)[C@H](NC(=O)[C@H](C)NC(=O)[C@H](CCCCN)NC(=O)[C@H](CC(C)C)NC(=O)[C@H](C)NC(=O)[C@@H](NC(=O)[C@H](Cc1cnc[nH]1)NC(=O)[C@H](CC(C)C)NC(=O)[C@@H](NC(=O)[C@@H](NC(=O)[C@H](CCCCN)NC(=O)[C@H](CCCCN)NC(=O)[C@H](C)NC(=O)[C@H](CO)NC(=O)[C@H](CCCCN)NC(=O)[C@H](Cc1ccccc1)NC(=O)[C@@H](NC(=O)[C@H](CCCCN)NC(=O)[C@H](CC(C)C)NC(=O)[C@H](Cc1ccccc1)NC(=O)[C@H](CO)NC(=O)[C@H](CCCCN)NC(=O)[C@H](Cc1c[nH]c2ccccc12)NC(=O)[C@H](CCCCN)NC(C)=O)[C@@H](C)O)[C@@H](C)O)C(C)C)[C@@H](C)O)C(=O)N[C@@H](CO)C(=O)N[C@@H](CO)C(N)=O [Peptide V13K],pIC50,[1]; [7],4.92
same,pIC50,[2]; [8],4.58
same,Unbinding force PC/Chol,[3],101 ± 37 pN
same,tR (RP-HPLC retention time),[4],38.790 min
same,α-Helix (%) 50% TFE,[5],69.85%
same,[θ]222 Benign,[5],−4236.54 degree·cm^2·dmol^−1
same,[θ]222 50% TFE,[5],−30268.40 degree·cm^2·dmol^−1
same,α-Helix (%) Benign,[5],9.77%
same,Unbinding force Chicken erythrocyte,[6],87 ± 39 pN
Ac-KWKSFAKTFKSAKKTVAHTALKAISS-NH2 [L6A/L17A],pIC50,[1]; [7],< 3.90
same,pIC50,[2]; [8],< 3.90
same,Unbinding force PC/Chol,[3],100 ± 34 pN
same,tR (RP-HPLC retention time),[4],32.210 min
same,α-Helix (%) 50% TFE,[5],65.58%
same,[θ]222 Benign,[5],−3589.82 degree·cm^2·dmol^−1
same,[θ]222 50% TFE,[5],−28421.80 degree·cm^2·dmol^−1
same,α-Helix (%) Benign,[5],8.28%
same,Unbinding force Chicken erythrocyte,[6],78 ± 39 pN
